Article PMC3583093 (Evidence-based Complementary and Alternative Medicine : eCAM, 2013)
Values joined by “and” are separate entries in the source; they are usually repeats but may differ in a detail not shown here. Equal values may be shown once. “Also recorded” adds a separate entry of the source. Read-outs that look alike come from different tables or passages of the source.

What was measured:
[1] = test system: human epidermal melanocytes (HEMs); assay: Melanin synthesis in HEMs stimulated by L-tyrosine; format: cell-based; conditions: 1.0 mM L-tyrosine, repeated treatment for 6 days
Experimental: (§1) Melanogenesis in HEMs was determined as previously described. Cells were pretreated with test material for 60 min, and then melanogenesis was stimulated by adding L-tyrosine (1.0 mM). Media were replaced every other day, and cells were cultured for 6 days. Intracellular melanin was extracted using 0.1 M NaOH at 60°C for 60 min, quantified by measuring absorbance at 490 nm, and normalized for protein content using the Bio-Rad DC assay. Cell viabilities were determined using 3-[4,5-dimethylthiazol-2-yl]-2,5-diphenyltetrazolium bromide.

[2] = target: T1, human TYR (Homo sapiens, UniProt P14679); assay: In vitro TYR activity assay with lysates of HEK293-TYR cells; format: biochemical; conditions: for IC50: lysates of HEK293-TYR cells, read-out: IC50 against human TYR activity (converted)
T1 construct: expressed in transfected cells
T1 sequence (P14679 19-529): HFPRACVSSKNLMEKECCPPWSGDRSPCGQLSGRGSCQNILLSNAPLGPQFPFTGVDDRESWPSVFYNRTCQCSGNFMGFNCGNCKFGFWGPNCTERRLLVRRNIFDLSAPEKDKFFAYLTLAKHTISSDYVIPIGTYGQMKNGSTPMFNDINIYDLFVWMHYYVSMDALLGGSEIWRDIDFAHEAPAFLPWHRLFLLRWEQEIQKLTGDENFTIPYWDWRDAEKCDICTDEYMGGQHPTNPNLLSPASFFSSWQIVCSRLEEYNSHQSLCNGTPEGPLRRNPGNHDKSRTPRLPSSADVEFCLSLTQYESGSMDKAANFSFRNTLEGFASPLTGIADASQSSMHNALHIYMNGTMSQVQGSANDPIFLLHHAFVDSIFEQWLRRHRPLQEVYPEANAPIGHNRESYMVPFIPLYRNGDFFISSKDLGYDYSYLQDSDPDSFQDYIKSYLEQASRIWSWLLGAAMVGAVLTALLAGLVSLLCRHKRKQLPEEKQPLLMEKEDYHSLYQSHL

[3] = test system: human epidermal melanocytes (HEMs); assay: Cell viability of HEMs (MTT); format: cell-based; conditions: repeated treatment for 6 days
Experimental: as §1

[4] = target: T2, murine TYR (Mus musculus, UniProt P11344); assay: In vitro TYR activity assay with lysates of murine B16/F10 cells; format: biochemical
T2 sequence (P11344 19-533): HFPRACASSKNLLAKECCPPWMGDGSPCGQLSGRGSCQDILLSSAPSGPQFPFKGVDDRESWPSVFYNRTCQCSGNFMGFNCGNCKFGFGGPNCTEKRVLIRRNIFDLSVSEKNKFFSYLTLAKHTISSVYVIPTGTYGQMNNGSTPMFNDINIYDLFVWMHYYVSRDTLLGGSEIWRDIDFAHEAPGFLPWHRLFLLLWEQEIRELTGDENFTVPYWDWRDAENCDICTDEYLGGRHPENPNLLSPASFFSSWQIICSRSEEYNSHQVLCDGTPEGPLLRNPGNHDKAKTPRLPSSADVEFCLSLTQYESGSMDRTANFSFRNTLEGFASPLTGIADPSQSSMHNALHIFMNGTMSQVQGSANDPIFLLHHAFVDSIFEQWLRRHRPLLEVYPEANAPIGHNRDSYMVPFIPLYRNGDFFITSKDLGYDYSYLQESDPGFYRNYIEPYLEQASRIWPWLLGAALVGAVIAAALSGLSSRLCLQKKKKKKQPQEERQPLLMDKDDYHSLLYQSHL

[5] = target: T1, human TYR; assay: In vitro TYR activity assay with lysates of HEMs; format: biochemical; conditions: read-out: IC50 against human TYR activity (converted)
Experimental: Human epidermal melanocytes (HEMs), derived from moderately pigmented neonatal foreskins, were obtained from Cascade Biologics (Portland, OR, USA). Cells were grown in Medium 254 supplemented with human melanocyte growth supplement (Cascade Biologics) and antibiotics. HEK293 cells and murine melanoma B16/F10 cells (CRL-6475) were obtained from the American Type Culture Collection (Manassas, VA, USA). HEK 293 cells were transformed into HEK293-TYR cells stably expressing human TYR, as previously described. HEK293 cells, HEK293-TYR cells, and murine melanoma B16/F10 cells were cultured in growth medium (Dulbecco's minimum Eagle's medium (DMEM) containing 10% fetal bovine serum and antibiotics (100 U mL^−1 penicillin, 0.1 mg mL^−1 streptomycin, and 0.25 µg mL^−1 amphotericin B)). Cells were cultured at 37°C in a humidified atmosphere containing 5% CO2 and 95% air. Cells were lysed in ice-cold lysis buffer (10 mM Tris-Cl, pH 7.4, 120 mM NaCl, 25 mM KCl, 2.0 mM EGTA, 1.0 mM EDTA, and 0.5% Triton X-100 and protease inhibitor cocktail) and centrifuged at 13,000 ×g for 15 min at 4°C to obtain clear supernatants which were used as cell lysates.
In vitro TYR assays were run for human, murine, and mushroom TYRs. […] The formation of DOPA chrome was monitored by measuring absorbance at 490 nm with a BioRad Model 680 microplate reader (Bio-Rad Laboratories, Inc., Hercules, CA, USA). […]

[6] = target: T2, murine TYR; parameters: method as in Yanagihara et al. [30]; conditions: ref Yanagihara et al. [30]; read-out: IC50 against murine TYR (converted); cited from earlier work
[7] = target: T2, murine TYR; parameters: method as in Kim et al. [29]; conditions: at 100 µM or 22.8 µg mL^−1; ref Kim et al. [29]; cited from earlier work
[8] = test system: mushroom TYR; assay: In vitro mushroom TYR activity assay; format: biochemical; conditions: compared with human and murine TYRs
Experimental: In vitro TYR assays were run for human, murine, and mushroom TYRs. The lysates of HEK293-TYR cells were used as a human TYR preparation in most experiments. In some experiments, the lysates of murine B16/F10 cells (Figure 5), HEK293 cells, and HEMs (Figure 6) were used for comparative purposes. Mushroom TYR was purchased from Sigma-Aldrich. The reaction mixture (200 μL) containing either cell lysates (40 μg protein) or mushroom TYR (20 U) and 0.5 mM L-tyrosine, 1 μM DOPA in 100 mM sodium phosphate buffer (pH 6.8) was placed on a 96-well microplate and incubated at 37°C. The formation of DOPA chrome was monitored by measuring absorbance at 490 nm with a BioRad Model 680 microplate reader (Bio-Rad Laboratories, Inc., Hercules, CA, USA). Assays were also run in the absence of TYR enzyme to correct for potential nonenzymatic reactions. Samples and reference inhibitors were included in reaction mixtures at different concentrations.

[9] = read-out: IC50 against murine TYR activity (converted)

| IC50 [2] | IC50 [4, 9] [µM] | IC50 [5] | inhibition of human TYR activity ([2]; at 10~30 µg mL^−1, lysates of HEK293-TYR cells and HEMs) | IC50 ([4]; dose-response curve at low concentration range, read-out: IC50 against murine TYR) [µM] | SMILES | effect on melanin synthesis in HEMs [1] | cytotoxic effect in HEMs ([3]; at 100 µM) | effect on melanin synthesis in HEMs ([1]; listed as Resveratrol) | IC50 [6] [µM] | inhibition of murine TYR [7] [%] | effect on mushroom TYR activity [8] | concentration causing cytotoxicity in HEMs [3] |
| --- | --- | --- | --- | --- | --- | --- | --- | --- | --- | --- | --- | --- |
| 4.02 µM | 12.2 |  |  |  | O=C(O)/C=C/c1ccc(O)cc1 [p-coumaric acid, reference compound] | dose dependently attenuated | only a little cytotoxic effect |  |  |  |  |  |
| 1.71 µM and 1.7 µM | 4.38 | 5.3 µM and 5.26 µM | 80~90% | 4.3 | Oc1ccc(/C=C/c2cc(O)cc(O)c2)cc1 [resveratrol] | dose dependently attenuated; also recorded: reduce melanin synthesis in HEMs at subtoxic concentrations |  | inhibited melanin synthesis by human epidermal melanocytes at subtoxic concentrations | 10.1 | 32.7 | much smaller effect on mushroom TYR activity; also recorded: very low | above 10 µM |
